Measured values: patent US20230085307A1, “PYRIDAZINONE COMPOUND AND HERBICIDE” (NISSAN CHEMICAL CORPORATION, priority 2019, published 2023)

Experiments:
redroot pigweed [1] = assay: Test Example 5: herbicidal effect by foliage application, plastic box (Table 20, symbol N); format: in vivo, redroot pigweed (Amaranthus retroflexus); conditions: 320 g/ha, foliage application after 14-day growth, evaluated three weeks after application
Method in brief: (§1)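 Plants were sown into sterilized diluvial soil under about 1.5 cm cover and kept in a greenhouse at 25° C. to 30° C. Fourteen days on, foliage received an even spray of the diluted emulsion. Herbicidal or crop effect was judged three weeks afterwards.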

Italian ryegrass [2] = assay: Test Example 5: herbicidal effect by foliage application, plastic box (Table 20, symbol K); format: in vivo, Italian ryegrass (Lolium multiflorum); conditions: 320 g/ha, foliage application after 14-day growth, evaluated three weeks after application
Method in brief: as §1

blackgrass [3] = assay: Test Example 5: herbicidal effect by foliage application, plastic box (Table 20, symbol J); format: in vivo, blackgrass (Alopecurus myosuroides); conditions: 320 g/ha, foliage application after 14-day growth, evaluated three weeks after application
Method in brief: as §1

chickweed [4] = assay: Test Example 5: herbicidal effect by foliage application, plastic box (Table 20, symbol P); format: in vivo, common chickweed (Stellaria media); conditions: 320 g/ha, foliage application after 14-day growth, evaluated three weeks after application
Method in brief: as §1

green foxtail [5] = assay: Test Example 5: herbicidal effect by foliage application, plastic box (Table 20, symbol G); format: in vivo, green foxtail (Setaria viridis); conditions: 320 g/ha, foliage application after 14-day growth, evaluated three weeks after application
Method in brief: as §1

barnyard grass [6] = assay: Test Example 4: herbicidal effect by soil treatment (Table 19, symbol H); format: in vivo, barnyard grass (Echinochloa crus-galli); conditions: amount of applied herbicide 320 g/ha
Method in brief: (§2)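 In this soil treatment, the formulated compound reached the seeds only through the soil: seeds were buried about 1.5 cm deep in sterilized diluvial soil, then the diluted emulsion was sprayed over the surface. After three weeks at 25° C. to 30° C. in a greenhouse, effects were graded on criteria from an earlier test.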

velvetleaf [7] = assay: Test Example 4: herbicidal effect by soil treatment (Table 19, symbol M); format: in vivo, velvetleaf (Abutilon theophrasti); conditions: amount of applied herbicide 320 g/ha
Method in brief: as §2

southern crabgrass [8] = assay: Test Example 4: herbicidal effect by soil treatment (Table 19, symbol F); format: in vivo, southern crabgrass (Digitaria ciliaris); conditions: amount of applied herbicide 320 g/ha
Method in brief: as §2

lambsquarters [9] = assay: Test Example 4: herbicidal effect by soil treatment (Table 19, symbol O); format: in vivo, lambsquarters (Chenopodium album); conditions: amount of applied herbicide 320 g/ha
Method in brief: as §2

persian speedwell [10] = assay: Test Example 5: herbicidal effect by foliage application, plastic box (Table 20, symbol R); format: in vivo, Persian speedwell (Veronica persica); conditions: 320 g/ha, foliage application after 14-day growth, evaluated three weeks after application
Method in brief: as §1

windgrass [11] = assay: Test Example 4: herbicidal effect by soil treatment (Table 19, symbol L); format: in vivo, windgrass (Apera spica-venti); conditions: amount of applied herbicide 320 g/ha
Method in brief: as §2

rice flat sedge = assay: Test Example 3: herbicidal effect by foliage application, Wagner pot (Table 18, symbol E); format: in vivo, rice flat sedge (Cyperus iria); conditions: 320 g/ha
Method in brief: (§3)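 Plants were sown in alluvial soil held under 0.1–0.5 cm standing water and grown 14 days in a greenhouse at 25–30 °C. An emulsifiable formulation, water-diluted to the set dose, was then sprayed onto the foliage, and effects were scored three weeks later using previously defined criteria.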

Chinese sprangletop = assay: Test Example 3: herbicidal effect by foliage application, Wagner pot (Table 18, symbol D); format: in vivo, chinese sprangletop (Leptochloa chinensis); conditions: 320 g/ha
Method in brief: as §3

velvetleaf [12] = assay: Test Example 5: herbicidal effect by foliage application, plastic box (Table 20, symbol M); format: in vivo, velvetleaf (Abutilon theophrasti); conditions: 320 g/ha, foliage application after 14-day growth, evaluated three weeks after application
Method in brief: as §1

southern crabgrass [13] = assay: Test Example 5: herbicidal effect by foliage application, plastic box (Table 20, symbol F); format: in vivo, southern crabgrass (Digitaria ciliaris); conditions: 320 g/ha, foliage application after 14-day growth, evaluated three weeks after application
Method in brief: as §1

wild oat [14] = assay: Test Example 4: herbicidal effect by soil treatment (Table 19, symbol I); format: in vivo, wild oat (Avena fatua); conditions: amount of applied herbicide 320 g/ha
Method in brief: as §2

windgrass [15] = assay: Test Example 5: herbicidal effect by foliage application, plastic box (Table 20, symbol L); format: in vivo, windgrass (Apera spica-venti); conditions: 320 g/ha, foliage application after 14-day growth, evaluated three weeks after application
Method in brief: as §1

green foxtail [16] = assay: Test Example 4: herbicidal effect by soil treatment (Table 19, symbol G); format: in vivo, green foxtail (Setaria viridis); conditions: amount of applied herbicide 320 g/ha
Method in brief: as §2

persian speedwell [17] = assay: Test Example 4: herbicidal effect by soil treatment (Table 19, symbol R); format: in vivo, Persian speedwell (Veronica persica); conditions: amount of applied herbicide 320 g/ha
Method in brief: as §2

barnyard grass [18] = assay: Test Example 5: herbicidal effect by foliage application, plastic box (Table 20, symbol H); format: in vivo, barnyard grass (Echinochloa crus-galli); conditions: 320 g/ha, foliage application after 14-day growth, evaluated three weeks after application
Method in brief: as §1

wild oat [19] = assay: Test Example 5: herbicidal effect by foliage application, plastic box (Table 20, symbol I); format: in vivo, wild oat (Avena fatua); conditions: 320 g/ha, foliage application after 14-day growth, evaluated three weeks after application
Method in brief: as §1

Italian ryegrass [20] = assay: Test Example 4: herbicidal effect by soil treatment (Table 19, symbol K); format: in vivo, Italian ryegrass (Lolium multiflorum); conditions: amount of applied herbicide 320 g/ha
Method in brief: as §2

lambsquarters [21] = assay: Test Example 5: herbicidal effect by foliage application, plastic box (Table 20, symbol O); format: in vivo, lambsquarters (Chenopodium album); conditions: 320 g/ha, foliage application after 14-day growth, evaluated three weeks after application
Method in brief: as §1

barnyard grass [22] = assay: Test Example 3: herbicidal effect by foliage application, Wagner pot (Table 18, symbol H); format: in vivo, barnyard grass (Echinochloa crus-galli); conditions: 320 g/ha
Method in brief: as §3

chickweed [23] = assay: Test Example 4: herbicidal effect by soil treatment (Table 19, symbol P); format: in vivo, common chickweed (Stellaria media); conditions: amount of applied herbicide 320 g/ha
Method in brief: as §2

blackgrass [24] = assay: Test Example 4: herbicidal effect by soil treatment (Table 19, symbol J); format: in vivo, blackgrass (Alopecurus myosuroides); conditions: amount of applied herbicide 320 g/ha
Method in brief: as §2

redroot pigweed [25] = assay: Test Example 4: herbicidal effect by soil treatment (Table 19, symbol N); format: in vivo, redroot pigweed (Amaranthus retroflexus); conditions: amount of applied herbicide 320 g/ha
Method in brief: as §2

Row | SMILES | herbicidal effect on N: redroot pigweed (evaluation grade 0-5) (redroot pigweed [1]) | herbicidal effect on K: Italian ryegrass (evaluation grade 0-5) (Italian ryegrass [2]) | herbicidal effect on J: blackgrass (evaluation grade 0-5) (blackgrass [3]) | herbicidal effect on P: chickweed (evaluation grade 0-5) (chickweed [4]) | herbicidal effect on G: green foxtail (evaluation grade 0-5) (green foxtail [5]) | Herbicidal effect by soil treatment, H: barnyard grass (barnyard grass [6]) | Herbicidal effect by soil treatment, M: velvetleaf (velvetleaf [7]) | Herbicidal effect by soil treatment, F: southern crabgrass (southern crabgrass [8]) | Herbicidal effect by soil treatment, O: lambsquarters (lambsquarters [9]) | herbicidal effect on R: persian speedwell (evaluation grade 0-5) (persian speedwell [10]) | Herbicidal effect by soil treatment, L: windgrass (windgrass [11]) | herbicidal effect on rice flat sedge (E) (rice flat sedge) | herbicidal effect on Chinese sprangletop (D) (Chinese sprangletop) | herbicidal effect on M: velvetleaf (evaluation grade 0-5) (velvetleaf [12]) | herbicidal effect on F: southern crabgrass (evaluation grade 0-5) (southern crabgrass [13]) | Herbicidal effect by soil treatment, I: wild oat (wild oat [14]) | herbicidal effect on L: windgrass (evaluation grade 0-5) (windgrass [15]) | Herbicidal effect by soil treatment, G: green foxtail (green foxtail [16]) | Herbicidal effect by soil treatment, R: persian speedwell (persian speedwell [17]) | herbicidal effect on H: barnyard grass (evaluation grade 0-5) (barnyard grass [18]) | also measured
1 | CCCOc1ccc(-c2sc3c(Cl)cccc3c2-c2c(O)c(C)nn(C)c2=O)cc1 [4-027] | 5 (Herbicidal rate of 90% or more (almost completely withered)) | 1 (Herbicidal rate of 5% or more and less than 20%) | 3 (Herbicidal rate of 40% or more and less than 70%) | 5 (Herbicidal rate of 90% or more (almost completely withered)) | 0 (Herbicidal rate of 5% or less (almost no effect)) | 0 (Herbicidal rate of 5% or less (almost no effect)) | 0 (Herbicidal rate of 5% or less (almost no effect)) | 0 (Herbicidal rate of 5% or less (almost no effect)) | 2 (Herbicidal rate of 20% or more and less than 40%) | 5 (Herbicidal rate of 90% or more (almost completely withered)) | 0 (Herbicidal rate of 5% or less (almost no effect)) | 0 (Herbicidal rate of 5% or less (almost no effect)) | 0 (Herbicidal rate of 5% or less (almost no effect)) | 4 (Herbicidal rate of 70% or more and less than 90%) | 0 (Herbicidal rate of 5% or less (almost no effect)) | 0 (Herbicidal rate of 5% or less (almost no effect)) | 3 (Herbicidal rate of 40% or more and less than 70%) | 0 (Herbicidal rate of 5% or less (almost no effect)) | 1 (Herbicidal rate of 5% or more and less than 20%) | 4 (Herbicidal rate of 70% or more and less than 90%) | herbicidal effect on I: wild oat (evaluation grade 0-5) (wild oat [19]): 0 (Herbicidal rate of 5% or less (almost no effect)); Herbicidal effect by soil treatment, K: Italian ryegrass (Italian ryegrass [20]): 0 (Herbicidal rate of 5% or less (almost no effect)); herbicidal effect on O: lambsquarters (evaluation grade 0-5) (lambsquarters [21]): 5 (Herbicidal rate of 90% or more (almost completely withered)); herbicidal effect on barnyard grass (H) (barnyard grass [22]): 5 (Herbicidal rate of 90% or more (almost completely withered)); Herbicidal effect by soil treatment, P: chickweed (chickweed [23]): 5 (Herbicidal rate of 90% or more (almost completely withered)); Herbicidal effect by soil treatment, J: blackgrass (blackgrass [24]): 0 (Herbicidal rate of 5% or less (almost no effect)); Herbicidal effect by soil treatment, N: redroot pigweed (redroot pigweed [25]): 4 (Herbicidal rate of 70% or more and less than 90%)
2 | COc1cc(F)ccc1-c1sc2c(Cl)cccc2c1-c1c(O)c(C)nn(C)c1=O [4-033] | 2 (Herbicidal rate of 20% or more and less than 40%) | 0 (Herbicidal rate of 5% or less (almost no effect)) | 0 (Herbicidal rate of 5% or less (almost no effect)) | 5 (Herbicidal rate of 90% or more (almost completely withered)) | 0 (Herbicidal rate of 5% or less (almost no effect)) | 0 (Herbicidal rate of 5% or less (almost no effect)) | 0 (Herbicidal rate of 5% or less (almost no effect)) | 0 (Herbicidal rate of 5% or less (almost no effect)) | 0 (Herbicidal rate of 5% or less (almost no effect)) | 5 (Herbicidal rate of 90% or more (almost completely withered)) | 0 (Herbicidal rate of 5% or less (almost no effect)) | 3 (Herbicidal rate of 40% or more and less than 70%) | 2 (Herbicidal rate of 20% or more and less than 40%) | 3 (Herbicidal rate of 40% or more and less than 70%) | 0 (Herbicidal rate of 5% or less (almost no effect)) | 0 (Herbicidal rate of 5% or less (almost no effect)) | 1 (Herbicidal rate of 5% or more and less than 20%) | 0 (Herbicidal rate of 5% or less (almost no effect)) | 4 (Herbicidal rate of 70% or more and less than 90%) | 3 (Herbicidal rate of 40% or more and less than 70%) | herbicidal effect on I: wild oat (evaluation grade 0-5) (wild oat [19]): 0 (Herbicidal rate of 5% or less (almost no effect)); Herbicidal effect by soil treatment, K: Italian ryegrass (Italian ryegrass [20]): 0 (Herbicidal rate of 5% or less (almost no effect)); herbicidal effect on O: lambsquarters (evaluation grade 0-5) (lambsquarters [21]): 0 (Herbicidal rate of 5% or less (almost no effect)); herbicidal effect on barnyard grass (H) (barnyard grass [22]): 4 (Herbicidal rate of 70% or more and less than 90%); Herbicidal effect by soil treatment, P: chickweed (chickweed [23]): 4 (Herbicidal rate of 70% or more and less than 90%); Herbicidal effect by soil treatment, J: blackgrass (blackgrass [24]): 0 (Herbicidal rate of 5% or less (almost no effect)); Herbicidal effect by soil treatment, N: redroot pigweed (redroot pigweed [25]): 2 (Herbicidal rate of 20% or more and less than 40%)
